Measurements published in US20090215778A1, “Alpha-substituted Arylmethyl Piperazine Pyrazolo [1,5-alpha]Pyrimidine Amide Derivatives” (priority 2007, published 2009).

Key:
[1] = biological target: T1, HIV Env six-helix bundle (6HB) structure (Human immunodeficiency virus type 1 group M subtype B, UniProt P04579); assay: Six-helix bundle (6HB) assay; type: cell-based, HIV-1 (strain RF)
T1 construct: H9 cells chronically infected with HIV-1 (H9/HIV-1RF); endogenous in cells; host or cells: H9 cells chronically infected with HIV-1 strain RF (Env is made from the virus in the infected cells, not by transfection)
Method in brief: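 Chronically HIV-1 RF-infected H9 cells (12-40 days post-infection), 2.5×10^5 per well, were preincubated with compound for 30 min at 37 °C. sCD4 at 1 μg/mL was added for 1 h to trigger Env changes. 6HB-specific rabbit serum (1 h, 37 °C) was then added, followed by PE anti-rabbit (45 min, 4 °C), with flow cytometric fluorescence read-out.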

HIV-1, NL4-3 strain = assay: Virus infection assay (virus entry and single-cycle infection); type: cell-based; settings: Human immunodeficiency virus 1, NL43, TZM-b1, read-out: Nl4
Method in brief: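 TZM-b1 cells (CD4, CXCR4, CCR5; LTR-driven lacZ/luciferase reporters) were infected with HIV-1 NL4-3 (MOI 0.01) with 80 μg/mL DEAE-dextran in the presence of test compound, 4 h at 37 °C before adding complete medium. Infection was quantified one day post-infection as chemiluminescent β-galactosidase signal.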

T1 sequence (P04579 32-519): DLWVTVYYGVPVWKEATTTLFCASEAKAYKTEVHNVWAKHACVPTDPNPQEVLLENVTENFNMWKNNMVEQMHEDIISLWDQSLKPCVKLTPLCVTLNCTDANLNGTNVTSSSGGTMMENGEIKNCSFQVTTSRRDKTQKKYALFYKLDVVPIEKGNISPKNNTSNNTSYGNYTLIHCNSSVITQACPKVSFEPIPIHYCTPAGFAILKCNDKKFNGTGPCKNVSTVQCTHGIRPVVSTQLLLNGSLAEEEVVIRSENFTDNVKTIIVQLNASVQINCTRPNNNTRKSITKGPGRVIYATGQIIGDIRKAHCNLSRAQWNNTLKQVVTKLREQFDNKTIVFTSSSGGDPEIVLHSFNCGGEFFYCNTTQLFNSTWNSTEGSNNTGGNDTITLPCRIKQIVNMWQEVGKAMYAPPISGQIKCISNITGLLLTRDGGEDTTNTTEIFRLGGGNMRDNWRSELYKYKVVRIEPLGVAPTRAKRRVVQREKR
T1 sequence (P04579 520-865): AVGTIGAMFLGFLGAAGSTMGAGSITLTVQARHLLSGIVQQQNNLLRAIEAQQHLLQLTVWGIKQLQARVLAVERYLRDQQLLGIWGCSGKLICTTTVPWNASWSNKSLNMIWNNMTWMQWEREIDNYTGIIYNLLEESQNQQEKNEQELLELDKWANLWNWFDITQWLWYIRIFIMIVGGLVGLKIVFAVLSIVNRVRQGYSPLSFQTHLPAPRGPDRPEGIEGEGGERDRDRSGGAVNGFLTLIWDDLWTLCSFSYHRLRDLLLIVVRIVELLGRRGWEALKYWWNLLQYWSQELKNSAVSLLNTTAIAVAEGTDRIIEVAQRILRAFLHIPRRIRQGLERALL

`COc1ccc(-c2nc3c(C(=O)N4CCN([C@@H](C)c5ccc(F)c(F)c5)C[C@H]4C)cnn3c(C(F)(F)F)c2C)cc1` [methanone, [(2R)-4-[(1S)-1-(3,4-difluorophenyl)ethyl]-2-methyl-1-piperazinyl][5-(4-methoxyphenyl)-6-methyl-7-(trifluoromethyl)pyrazolo[1,5-α]pyrimidin-3-yl]-] gave an IC50 [1] of less than 1 µM and an IC50 (HIV-1, NL4-3 strain) of less than 1 µM.

Compound `COc1ccc(-c2nc3c(C(=O)N4CCN([C@@H](C)c5cc(F)cc(F)c5)C[C@H]4C)cnn3c(C(F)(F)F)c2C)cc1` [methanone, [(2R)-4-[(1S)-1-(3,5-difluorophenyl)ethyl]-2-methyl-1-piperazinyl][5-(4-methoxyphenyl)-6-methyl-7-(trifluoromethyl)pyrazolo[1,5-α]pyrimidin-3-yl]-] has an IC50 [1] of less than 1 µM and an IC50 (HIV-1, NL4-3 strain) of less than 1 µM.

For `COc1ccc(-c2nc3c(C(=O)N4CCN([C@H](CO)c5c(C)noc5C)C[C@H]4C)cnn3c(C(F)(F)F)c2C)cc1` [methanone, [(2R)-4-[(1S)-1-(3,5-dimethyl-4-isoxazolyl)-2-hydroxyethyl]-2-methyl-1-piperazinyl][5-(4-methoxyphenyl)-6-methyl-7-(trifluoromethyl)pyrazolo[1,5-α]pyrimidin-3-yl]-], the IC50 [1] was 1.1 to 10 µM and the IC50 (HIV-1, NL4-3 strain) was 1.1 to 10 µM.

`COc1ccc(-c2nc3c(C(=O)N4CCN([C@@H](C)c5cccc(N)c5)C[C@H]4C)cnn3c(C(F)(F)F)c2C)cc1` [methanone, [(2R)-4-[(1S)-1-(3-aminophenyl)ethyl]-2-methyl-1-piperazinyl][5-(4-methoxyphenyl)-6-methyl-7-(trifluoromethyl)pyrazolo[1,5-α]pyrimidin-3-yl]-] gave an IC50 [1] of less than 1 µM and an IC50 (HIV-1, NL4-3 strain) of less than 1 µM.

In the case of `COc1ccc(-c2nc3c(C(=O)N4CCN([C@@H](C)c5sccc5Cl)C[C@H]4C)cnn3c(C(F)(F)F)c2C)cc1` [methanone, [(2R)-4-[(1S)-1-(3-chloro-2-thienyl)ethyl]-2-methyl-1-piperazinyl][5-(4-methoxyphenyl)-6-methyl-7-(trifluoromethyl)pyrazolo[1,5-α]pyrimidin-3-yl]-], the IC50 [1] is reported as less than 1 µM and the IC50 (HIV-1, NL4-3 strain) is reported as less than 1 µM.

Work on `COc1ccc(-c2nc3c(C(=O)N4CCN([C@@H](C)c5ccc(N)cc5)C[C@H]4C)cnn3c(C(F)(F)F)c2C)cc1` [methanone, [(2R)-4-[(1S)-1-(4-aminophenyl)ethyl]-2-methyl-1-piperazinyl][5-(4-methoxyphenyl)-6-methyl-7-(trifluoromethyl)pyrazolo[1,5-α]pyrimidin-3-yl]-] yielded an IC50 [1] of 1.1 to 10 µM and an IC50 (HIV-1, NL4-3 strain) of less than 1 µM.

With `COc1ccc(-c2nc3c(C(=O)N4CCN([C@@H](C)c5ccc(F)cc5)C[C@H]4C)cnn3c(C(F)(F)F)c2C)cc1` [methanone, [(2R)-4-[(1S)-1-(4-fluorophenyl)ethyl]-2-methyl-1-piperazinyl][5-(4-methoxyphenyl)-6-methyl-7-(trifluoromethyl)pyrazolo[1,5-α]pyrimidin-3-yl]-] the IC50 [1] was less than 1 µM and the IC50 (HIV-1, NL4-3 strain) was less than 1 µM.

`COc1ccc(-c2nc3c(C(=O)N4CCN([C@@H](CO)c5ccc(Cl)s5)C[C@H]4C)cnn3c(C(F)(F)F)c2C)cc1` [methanone, [(2R)-4-[(1S)-1-(5-chloro-2-thienyl)-2-hydroxyethyl]-2-methyl-1-piperazinyl][5-(4-methoxyphenyl)-6-methyl-7-(trifluoromethyl)pyrazolo[1,5-α]pyrimidin-3-yl]-] gave an IC50 [1] of less than 1 µM and an IC50 (HIV-1, NL4-3 strain) of less than 1 µM.

In the case of `COc1ccc(-c2nc3c(C(=O)N4CCN([C@H](CO)c5cccnc5OC)C[C@H]4C)cnn3c(C(F)(F)F)c2C)cc1` [methanone, [(2R)-4-[(1S)-2-hydroxy-1-(2-methoxy-3-pyridinyl)ethyl]-2-methyl-1-piperazinyl][5-(4-methoxyphenyl)-6-methyl-7-(trifluoromethyl)pyrazolo[1,5-α]pyrimidin-3-yl]-], the IC50 [1] is reported as 1.1 to 10 µM and the IC50 (HIV-1, NL4-3 strain) is reported as 1.1 to 10 µM.

`COc1ccc(-c2nc3c(C(=O)N4CCN([C@H](CO)c5ccccc5OC)C[C@H]4C)cnn3c(C(F)(F)F)c2C)cc1` [methanone, [(2R)-4-[(1S)-2-hydroxy-1-(2-methoxyphenyl)ethyl]-2-methyl-1-piperazinyl][5-(4-methoxyphenyl)-6-methyl-7-(trifluoromethyl)pyrazolo[1,5-α]pyrimidin-3-yl]-] showed an IC50 [1] of less than 1 µM and an IC50 (HIV-1, NL4-3 strain) of less than 1 µM.

`COc1ccc(-c2nc3c(C(=O)N4CCN([C@H](CO)c5cccc(OC)c5)C[C@H]4C)cnn3c(C(F)(F)F)c2C)cc1` [methanone, [(2R)-4-[(1S)-2-hydroxy-1-(3-methoxyphenyl)ethyl]-2-methyl-1-piperazinyl][5-(4-methoxyphenyl)-6-methyl-7-(trifluoromethyl)pyrazolo[1,5-α]pyrimidin-3-yl]-] showed an IC50 [1] of less than 1 µM and an IC50 (HIV-1, NL4-3 strain) of less than 1 µM.

`COc1ccc(-c2nc3c(C(=O)N4CCN([C@@H](CO)c5cc(C)cs5)C[C@H]4C)cnn3c(C(F)(F)F)c2C)cc1` [methanone, [(2R)-4-[(1S)-2-hydroxy-1-(4-methyl-2-thienyl)ethyl]-2-methyl-1-piperazinyl][5-(4-methoxyphenyl)-6-methyl-7-(trifluoromethyl)pyrazolo[1,5-α]pyrimidin-3-yl]-] was tested, and the IC50 [1] was less than 1 µM and the IC50 (HIV-1, NL4-3 strain) was less than 1 µM.

For `COc1ccc(-c2nc3c(C(=O)N4CCN([C@H](CO)c5cscc5C)C[C@H]4C)cnn3c(C(F)(F)F)c2C)cc1` [methanone, [(2R)-4-[(1S)-2-hydroxy-1-(4-methyl-3-thienyl)ethyl]-2-methyl-1-piperazinyl][5-(4-methoxyphenyl)-6-methyl-7-(trifluoromethyl)pyrazolo[1,5-α]pyrimidin-3-yl]-], the IC50 [1] was less than 1 µM and the IC50 (HIV-1, NL4-3 strain) was less than 1 µM.

Compound `COc1ccc(-c2nc3c(C(=O)N4CCN([C@@H](CO)c5ccc(C)s5)C[C@H]4C)cnn3c(C(F)(F)F)c2C)cc1` [methanone, [(2R)-4-[(1S)-2-hydroxy-1-(5-methyl-2-thienyl)ethyl]-2-methyl-1-piperazinyl][5-(4-methoxyphenyl)-6-methyl-7-(trifluoromethyl)pyrazolo[1,5-α]pyrimidin-3-yl]-] has an IC50 [1] of less than 1 µM and an IC50 (HIV-1, NL4-3 strain) of less than 1 µM.

Work on `COc1ccc(-c2nc3c(C(=O)N4CCN([C@H](CO)c5ccccc5)C[C@H]4C)cnn3c(C(F)(F)F)c2C)cc1` [methanone, [(2R)-4-[(1S)-2-hydroxy-1-phenylethyl]-2-methyl-1-piperazinyl][5-(4-methoxyphenyl)-6-methyl-7-(trifluoromethyl)pyrazolo[1,5-α]pyrimidin-3-yl]-] yielded an IC50 [1] of less than 1 µM and an IC50 (HIV-1, NL4-3 strain) of less than 1 µM.

`COc1ccc(-c2nc3c(C(=O)N4CCN(C(CO)c5ccccc5NC(=O)C(C)C)C[C@H]4C)cnn3c(C(F)(F)F)c2C)cc1` (stereo partly drawn) [propanamide, N-[2-[2-hydroxy-1-[(3R)-4-[[5-(4-methoxyphenyl)-6-methyl-7-(trifluoromethyl)pyrazolo[1,5-α]pyrimidin-3-yl]carbonyl]-3-methyl-1-piperazinyl]ethyl]phenyl]-2-methyl-] showed an IC50 [1] greater than 10.1 µM and an IC50 (HIV-1, NL4-3 strain) greater than 10.1 µM.

`COc1ccc(-c2nc3c(C(=O)N4CCN(C(CO)c5cccc(NC(=O)C(C)C)c5)C[C@H]4C)cnn3c(C(F)(F)F)c2C)cc1` (stereo partly drawn) [propanamide, N-[3-[2-hydroxy-1-[(3R)-4-[[5-(4-methoxyphenyl)-6-methyl-7-(trifluoromethyl)pyrazolo[1,5-α]pyrimidin-3-yl]carbonyl]-3-methyl-1-piperazinyl]ethyl]phenyl]-2-methyl-] was tested, and the IC50 [1] was less than 1 µM and the IC50 (HIV-1, NL4-3 strain) was 1.1 to 10 µM.
